Drawing on ChEMBL document CHEMBL4385656, “Ciprofloxacin-1,2,3-triazole-isatin hybrids tethered via amide: Design, synthesis, and in vitro anti-mycobacterial activity evaluation” (Bioorg Med Chem Lett, 2019), this text covers MIC and Ratio for 15 compounds.

A word on the MIC: it is the lowest concentration that inhibits growth of the organism. Higher therefore signals a less susceptible organism.

Converted amounts (≈) assume the structure as drawn.

For one experiment, the system named is Mycobacterium tuberculosis. Description: Anti-mycobacterial activity against isoniazid and rifampicin-resistant Mycobacterium tuberculosis. In kind it is functional.
`O=C1C(=O)N(Cc2cn(CC(=O)N3CCN(c4cc5c(cc4F)c(=O)c(C(=O)O)cn5C4CC4)CC3)nn2)c2ccccc21` gave a minimum inhibitory concentration (MIC) of 0.12 µg/mL (≈ 0.2 µM).
Same read-out and setting: with `CO/N=C1/C(=O)N(Cc2cn(CC(=O)N3CCN(c4cc5c(cc4F)c(=O)c(C(=O)O)cn5C4CC4)CC3)nn2)c2c(F)cccc21` the figure was 32 µg/mL (≈ 49.5 µM); with `CCO/N=C1/C(=O)N(Cc2cn(CC(=O)N3CCN(c4cc5c(cc4F)c(=O)c(C(=O)O)cn5C4CC4)CC3)nn2)c2ccc(C)cc21`, 32 µg/mL (≈ 48.7 µM); with `O=C1C(=O)N(Cc2cn(CC(=O)N3CCN(c4cc5c(cc4F)c(=O)c(C(=O)O)cn5C4CC4)CC3)nn2)c2c(F)cccc21`, 2 µg/mL (≈ 3.24 µM).
On the same count and under the same terms, under `CCO/N=C1/C(=O)N(Cc2cn(CC(=O)N3CCN(c4cc5c(cc4F)c(=O)c(C(=O)O)cn5C4CC4)CC3)nn2)c2ccc(F)cc21` stands 16 µg/mL (≈ 24.2 µM).
Still for that read-out and setting: under `CCO/N=C1/C(=O)N(Cc2cn(CC(=O)N3CCN(c4cc5c(cc4F)c(=O)c(C(=O)O)cn5C4CC4)CC3)nn2)c2ccccc21` stands 16 µg/mL (≈ 24.9 µM).
Regarding `CO/N=C1/C(=O)N(Cc2cn(CC(=O)N3CCN(c4cc5c(cc4F)c(=O)c(C(=O)O)cn5C4CC4)CC3)nn2)c2ccc(F)cc21`, the MIC was 16 µg/mL (≈ 24.7 µM).
Same read-out and setting: with `CO/N=C1/C(=O)N(Cc2cn(CC(=O)N3CCN(c4cc5c(cc4F)c(=O)c(C(=O)O)cn5C4CC4)CC3)nn2)c2ccccc21` the figure was 8 µg/mL (≈ 12.7 µM).
Same read-out and setting: under `O=C1C(=O)N(Cc2cn(CC(=O)N3CCN(c4cc5c(cc4F)c(=O)c(C(=O)O)cn5C4CC4)CC3)nn2)c2ccc(F)cc21` stands 1 µg/mL (≈ 1.62 µM); under `CO/N=C1/C(=O)N(Cc2cn(CC(=O)N3CCN(c4cc5c(cc4F)c(=O)c(C(=O)O)cn5C4CC4)CC3)nn2)c2ccc(C)cc21`, 8 µg/mL (≈ 12.4 µM); under `Cc1ccc2c(c1)C(=O)C(=O)N2Cc1cn(CC(=O)N2CCN(c3cc4c(cc3F)c(=O)c(C(=O)O)cn4C3CC3)CC2)nn1`, 2 µg/mL (≈ 3.26 µM).
Same read-out and setting: under `CCO/N=C1/C(=O)N(Cc2cn(CC(=O)N3CCN(c4cc5c(cc4F)c(=O)c(C(=O)O)cn5C4CC4)CC3)nn2)c2c(F)cccc21` stands 32 µg/mL (≈ 48.4 µM).
Take `O=C(O)c1cn(C2CC2)c2cc(N3CCNCC3)c(F)cc2c1=O` [CIPROFLOXACIN]: the MIC amounted to 2 µg/mL (≈ 6.04 µM).
Same read-out and setting: with `NNC(=O)c1ccncc1` [ISONIAZID] the figure was over 64 µg/mL; with `CO[C@H]1/C=C/O[C@@]2(C)Oc3c(C)c(O)c4c(O)c(c(/C=N/N5CCN(C)CC5)c(O)c4c3C2=O)NC(=O)/C(C)=C\C=C\[C@H](C)[C@H](O)[C@@H](C)[C@@H](O)[C@@H](C)[C@H](OC(C)=O)[C@@H]1C` [RIFAMPIN], over 64 µg/mL.

Another experiment has as its system Mycobacterium tuberculosis. The experiment can be described thus: Potency index, ratio of MIC for ciprofloxacin to MIC for test compound for anti-mycobacterial activity against isoniazid and rifampicin-resistant Mycobacterium tuberculosis. In kind it is functional.
For `O=C1C(=O)N(Cc2cn(CC(=O)N3CCN(c4cc5c(cc4F)c(=O)c(C(=O)O)cn5C4CC4)CC3)nn2)c2ccccc21`, the Ratio result is “>=16”.

The test system of the next experiment is Mycobacterium tuberculosis. The experiment can be described thus: Potency index, ratio of MIC for isoniazid to MIC for test compound for anti-mycobacterial activity against isoniazid and rifampicin-resistant Mycobacterium tuberculosis. Type of experiment: functional.
As to `O=C1C(=O)N(Cc2cn(CC(=O)N3CCN(c4cc5c(cc4F)c(=O)c(C(=O)O)cn5C4CC4)CC3)nn2)c2ccccc21`, the Ratio result is given as “>=16”.

The test system of a further experiment is Mycobacterium tuberculosis. Description: Potency index, ratio of MIC for rifampicin to MIC for test compound for anti-mycobacterial activity against isoniazid and rifampicin-resistant Mycobacterium tuberculosis. In kind it is functional.
As for `O=C1C(=O)N(Cc2cn(CC(=O)N3CCN(c4cc5c(cc4F)c(=O)c(C(=O)O)cn5C4CC4)CC3)nn2)c2ccccc21`, the Ratio result is recorded as “>=16”.
